In patent US20110207944A1, “VITAMIN D3 LACTAM DERIVATIVE” (TEIJIN PHARMA LIMITED, priority 2008, published 2011):

Columns and labels:
[1] = test system: HL-60 cells; test: Vitamin D3 receptor-antagonist effect: inhibition of 1α,25-dihydroxyvitamin D3-induced differentiation of HL-60 (NBT reduction activity); assay type: cell-based; settings: Homo sapiens, 96 h; NBT-positive HL-60 cells, co-treatment with 1α,25-dihydroxyvitamin D3 1×10^−8 M, 4 days
Description: Vitamin D3 Receptor-Antagonist Effect in Terms of Cellular Differentiation-Inducing Activity of 1α,25-dihydroxyvitamin D3 in HL-60 as a Marker
(1) A HL-60 cell line purchased from a cell bank (Japanese Cancer Research Resource Bank, Cell number: JCRB0085) was used. The cells were frozen for storage as a frozen storage stock to prevent cell characteristic changes due to successive cultivations. The cells were defrosted prior to the initiation of the experiment, and those which started successive culturing were used in the experiment. Cells subcultured for one month to a half year were used for the experiment. The successive culturing was carried out by diluting the cells at a ratio of about 1/100 (1-2×10^4 cells/mL) in a fresh medium after the collection of cells from a cell suspension by centrifugation. RPMI-1640 supplemented with 10% fetal bovine serum was used as the culture medium.
(2) The subcultured cells by the procedure described in (1) were collected by centrifugation and re-suspended in the medium at 5×10^3 cells/mL, and the cells were plated into a 24-well culture dish at 1 mL/well. To this system, a solution of 1α,25-dihydroxyvitamin D3 at a concentration of 1×10^−5 M and the compounds of the present invention in a range of […] to 3×10^−3 M in ethanol, respectively, were added at 1 μL per well (the final concentration: 1×10^−8 M for 1α,25-dihydroxyvitamin D3, and 1×10^−9 M to 3×10^−6 M for the compounds of the present invention). Ethanol was added at 1 μL per well as a control. After the plate was incubated at 37° C. for 4 days in the presence of 5% CO2, the cells were separated and collected by centrifugation.
(3) The induction of nitroblue tetrazolium (hereinafter NBT) reduction activity was used as a marker for cell differentiation-inducing activity of HL-60 cells. The measurement of NBT reduction activity was carried out according to the following procedure. Specifically, cells collected by centrifugation were re-suspended in a fresh medium. Then 0.1% of NBT and 12-O-tetradecanoylphorbor-13-acetate at a final concentration of 100 ng/mL were added to the cell suspension and the mixture was incubated at 37° C. for 25 minutes. Then the cytospin smears were prepared and stained with Kernechtrot after air-drying. The ratio of positive cells expressing NBT reduction activity was determined under optical microscopy. Percentage ratios of the ratio of NBT-positive cells in a simultaneous treatment with 1α,25-dihydroxyvitamin D3 (1×10^−8 M) and a compound of the present invention (1×10^−9M and 3×10^−6 M) over the ratio of the NBT-positive cells in a single treatment with 1α,25-dihydroxyvitamin D3 (1×10^−8 M) were plotted against the treating concentration of the compounds of the present invention. […]

[2] = molecular target: T1, human VDR (Homo sapiens, UniProt P11473); test: Vitamin D3 receptor-antagonist activity: human osteocalcin promoter luciferase reporter in HOS cells transfected with human VDR and human RXR; assay type: cell-based; settings: for Antagonist specific activity against TEI-9647 (%): IC50 of test compound with respect to IC50 of TEI-9647 in each experiment; for IC50: luciferase activity in HOS cells, with 1α,25-dihydroxyvitamin D3 1×10^−8 M, 24 hours
T1 construct: expressed in transfected cells; host or cells: HOS cells (human osteosarcoma, ATCC), pcDNA3 expression vector, Lipofectamine 2000
T1 sequence (P11473 1-427): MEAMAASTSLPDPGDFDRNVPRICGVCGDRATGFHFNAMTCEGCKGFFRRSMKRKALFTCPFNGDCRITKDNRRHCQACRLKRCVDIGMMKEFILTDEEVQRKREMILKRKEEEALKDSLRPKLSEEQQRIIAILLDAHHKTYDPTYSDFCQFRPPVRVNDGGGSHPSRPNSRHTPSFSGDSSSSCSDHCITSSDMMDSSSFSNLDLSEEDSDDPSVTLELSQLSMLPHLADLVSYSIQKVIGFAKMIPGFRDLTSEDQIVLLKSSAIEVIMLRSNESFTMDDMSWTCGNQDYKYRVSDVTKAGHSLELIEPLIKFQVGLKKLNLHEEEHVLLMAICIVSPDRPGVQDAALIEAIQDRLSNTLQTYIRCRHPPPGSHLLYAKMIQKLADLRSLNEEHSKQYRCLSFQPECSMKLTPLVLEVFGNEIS
Description: Vitamin D3 Receptor-Antagonist Activity in Terms of the Transcription Activity in Human Osteocalcin by 1α,25-dihydroxyvitamin D3 as a Marker
(1) A pGL3 vector (Promega Corp.) was used as a reporter vector. The promoter sequence of the human osteocalcin gene, which was obtained by a known method (Ozono et al., J. Biol. Chem., 265:21881-21888, 1990), was cloned from cDNA acquired from HOS cells (obtained from ATCC) and inserted into the upstream of the luciferase gene on the reporter vector. An expression vector was constructed by inserting a DNA sequence encoding human VDR and human RXR into a pcDNA3 vector (Invitrogen Corp). The HOS cells were incubated in a DMEM medium supplemented with 10% FBS at 37° C. in the presence of 5% CO2, and subcultivated every 2 or 3 days.
(2) Cells being subcultivated were collected by centrifugation and re-suspended in a serum and phenol red-free DMEM medium at 4×10^5 cells/mL. The re-suspension of cells was plated in a 96 well plate at 0.1 mL/well. In this system, various vectors described in (1) were added at 0.05 mL/well with Lipofectamin 2000 (Invitrogen Corp.). After the incubation for 3 hours at 37° C., 1α,25-dihydroxyvitamin D3 and the compounds of the present invention in various concentrations or TEI-9647 (note) as a control (the final concentration: 1×10^−8 M for 1α,25-dihydroxyvitamin D3, and 1×10^−6M and 1×10^−12M for the compounds of the present invention and TEI-9647) were added to each well. After incubation at 37° C. for 24 hours, the medium was removed, the cells were washed with PBS(−) once, and measured for the luciferase activity using a Dual Glo-Luciferase Assay kit (Promega Corp.) by luminometer (Berthold Corp.). The resulting luciferase values were plotted against the concentration of the test compounds and IC50 was determined as the concentration of the test compound at which the luciferase value was inhibited by 50%. Furthermore, to compare the intensities of activity among experiments, the IC50 value of the test compounds with respect to the IC50 value of […] in each experiment was calculated as the antagonist specific activity (%) against TEI-9647.

[3] = molecular target: T2, Human Vitamin D3 Receptor (VDR) (Homo sapiens, UniProt P11473); test: Binding affinity to human vitamin D3 receptor (Polarscreen Vitamin D Receptor Competitor assay, Red; fluorescence polarization); settings: ratio of IC50 relative to IC50 of 1α,25-dihydroxyvitamin D3
T2 construct: purchased Invitrogen Corporation
T2 sequence (P11473 1-427): T1 sequence (P11473 1-427)
Procedure: Binding Affinity to Human Vitamin D3 Receptor (VDR) This binding affinity was assessed by a VDR affinity measurement kit (Polarscreen™ Vitamin D Receptor Competitor assay, Red; Invitrogen Corporation). The compounds of the present invention or 1α,25-dihydroxyvitamin D3 at various concentrations in DTT-containing buffer (pH 7.5) were mixed with fluorescence-labeled VDR ligand-human VTR complex in DTT-containing buffer (pH 7.5). The degree of polarization of the resulting solution was measured after the incubation of the solution at room temperature. The polarization values were plotted against the concentration of the test compounds, IC50 (the concentration of the test compounds at which the polarized value is reduced to 50%) was determined.

[4] = molecular target: T3, intracellular 1α,25-dihydroxyvitamin D3 receptor protein in chick intestinal mucous membrane (Gallus gallus, UniProt O42392); test: Binding affinity to intracellular vitamin D3 receptor (VDR) in chick intestinal mucous membrane, [3H]1α,25-dihydroxyvitamin D3 competition; settings: ratio of IC50 relative to IC50 of 1α,25-dihydroxyvitamin D3, 25° C., 1 hour
T3 construct: The intracellular 1α,25-dihydroxyvitamin D3 receptor protein in chick intestinal mucous membrane (0.2 mg); from tissue; host or cells: chick intestinal mucous membrane
T3 sequence (O42392 1-451): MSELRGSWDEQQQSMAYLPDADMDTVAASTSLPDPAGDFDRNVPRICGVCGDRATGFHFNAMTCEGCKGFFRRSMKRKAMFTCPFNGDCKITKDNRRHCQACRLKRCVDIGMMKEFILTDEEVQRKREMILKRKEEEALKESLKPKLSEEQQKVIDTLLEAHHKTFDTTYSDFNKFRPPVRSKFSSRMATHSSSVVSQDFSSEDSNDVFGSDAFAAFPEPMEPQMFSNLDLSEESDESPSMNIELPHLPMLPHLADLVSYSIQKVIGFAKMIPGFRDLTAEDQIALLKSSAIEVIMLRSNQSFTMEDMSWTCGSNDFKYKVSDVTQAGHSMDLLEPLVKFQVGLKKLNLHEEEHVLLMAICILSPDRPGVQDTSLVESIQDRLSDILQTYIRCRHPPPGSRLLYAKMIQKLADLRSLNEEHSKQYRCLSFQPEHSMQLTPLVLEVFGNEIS
Procedure: Binding Affinity to Intracellular Vitamin D3 Receptor (VDR) in Chick Intestinal Mucous Membrane
This binding affinity was assayed according to the method described by Ishizuka, et al. (Steroids, 37:33-43, 1982). Specifically, a solution of [26, 27-methyl-^3H]1α,25-dihydroxyvitamin D3 (15,000 dpm, 180 Ci/mmol) in ethanol (10 μL) and a solution of various concentrations of the compounds of the present invention in ethanol (40 μL) were added into a polypropylene tube (12×75 mm). The intracellular 1α,25-dihydroxyvitamin D3 receptor protein in chick intestinal mucous membrane (0.2 mg) and gelatin (1 mg) were dissolved in 1 mL of phosphate buffer (pH 7.4), the solution was added into the tube, and the mixture was allowed to react at 25° C. for 1 hour. To the tube, a 40% polyethylene glycol 6000 solution (1 mL) was added and the mixture was vigorously stirred. Then the tube was centrifuged at 2260×g at 4° C. for 60 minutes. The bottom of the tube containing precipitate was cut off by a cutter knife and was placed in a liquid scintillation vial, dioxane scintillator (10 mL) was added thereto and the radioactivity of the precipitate was measured by a liquid scintillation counter. The measured values were plotted against the concentration of the test compounds, and IC50 (the concentration of the test compounds at which binding to the receptor was inhibited by 50%) was determined. The ratios of the IC50 of the compounds of the present invention over the IC50 of 1α,25-dihydroxyvitamin D3 were calculated as the VDR affinity of the compounds of the present invention (%).

Row | IC50 [1] [nM] | Antagonist specific activity against TEI-9647 (%) [2] [%] | IC50 [2] [nM] | VDR affinity (%) [3] [%] | VDR affinity (%) [4] [%] | Compound
1 | – | 6.1 | 75 | – | – | C=C1/C(=C\C=C2/CCC[C@@]3(C)C2CC[C@@H]3[C@H](C)CC2CC(C)(O)C(=O)N2Cc2cc(OCC)cc(OCC)c2)C[C@@H](O)[C@H](CCCO)[C@@H]1O (stereo partly drawn) [Compound No. 42c, 2α-(3-hydroxypropyl)-1α,25-dihydroxyvitamin D2-26,23-lactam-N-(3,5-diethoxybenzyl)]
2 | 52 | 29.9 | 83.3 | – | 20 | C=C1/C(=C\C=C2/CCC[C@]3(C)[C@@H]([C@H](C)C[C@H]4C[C@](C)(O)C(=O)N4CCc4ccccc4)CC[C@@H]23)C[C@@H](O)[C@H](OCCCO)[C@@H]1O [Compound No. 13a, 2α-(3-hydroxypropoxy)-1α,25-dihydroxyvitamin D3-26,23-lactam-N-(2-phenethyl)]
3 | – | 9.8 | 95.8 | – | – | C=C1/C(=C\C=C2/CCC[C@]3(C)[C@@H]([C@H](C)CC4CC(C)(O)C(=O)N4Cc4cc(OCC)cc(OCC)c4)CC[C@@H]23)C[C@@H](O)[C@H](OCCCO)[C@@H]1O (stereo partly drawn) [Compound No. 43c, 2α-(3-hydroxypropoxy)-1α,25-dihydroxyvitamin D3-26,23-lactam-N-(3,5-diethoxybenzyl)]
4 | – | – | – | 31 | – | C=C1/C(=C\C=C2/CCC[C@]3(C)[C@@H]([C@H](C)CC4CC(C)(O)C(=O)N4Cc4cc(OCC)cc(OCC)c4)CC[C@@H]23)C[C@@H](O)[C@H](C)[C@@H]1O (stereo partly drawn) [Compound No. 41a, 2α-methyl-1α,25-dihydroxyvitamin D3-26,23-lactam-N-(3,5-diethoxybenzyl)]

Further lines, the compound ahead of its results:

Row | Compound | IC50 [1] [nM] | Antagonist specific activity against TEI-9647 (%) [2] [%] | IC50 [2] [nM] | VDR affinity (%) [3] [%] | VDR affinity (%) [4] [%]
5 | C=C1/C(=C\C=C2/CCC[C@]3(C)[C@@H]([C@H](C)CC4CC(C)(O)C(=O)N4CCc4ccccc4)CC[C@@H]23)C[C@@H](O)[C@H](CCCO)[C@@H]1O (stereo partly drawn) [Compound No. 12b, 2α-(3-hydroxypropyl)-1α,25-dihydroxyvitamin D3-26,23-lactam-N-(2-phenethyl)] | 170 | – | – | – | –
6 | C=C1/C(=C\C=C2/CCC[C@]3(C)[C@@H]([C@H](C)CC4CC(C)(O)C(=O)N4Cc4cc(OCC)cc(OCC)c4)CC[C@@H]23)C[C@@H](O)[C@H](C)[C@@H]1O (single isomer, unassigned) [Compound No. 41c, 2α-methyl-1α,25-dihydroxyvitamin D3-26,23-lactam-N-(3,5-diethoxybenzyl)] | – | 17.8 | 52.7 | 30 | –
7 | C=C1/C(=C\C=C2/CCC[C@]3(C)[C@@H]([C@H](C)C[C@H]4C[C@](C)(O)C(=O)N4CCc4ccccc4)CC[C@@H]23)C[C@@H](O)[C@H](CCCO)[C@@H]1O [Compound No. 12a, 2α-(3-hydroxypropyl)-1α,25-dihydroxyvitamin D3-26,23-lactam-N-(2-phenethyl)] | 10 | 143.1 | 17.4 | – | 222
8 | C=C1/C(=C\C=C2/CCC[C@]3(C)[C@@H]([C@H](C)CC4CC(C)(O)C(=O)N4CCc4ccccc4)CC[C@@H]23)C[C@@H](O)[C@H](C)[C@@H]1O (stereo partly drawn) [Compound No. 11a, 2α-methyl-1α,25-dihydroxyvitamin D3-26,23-lactam-N-(2-phenethyl)] | 16 | 90.5 | 27.5 | – | 50
